Reference: patent US20250295800A1, “CONJUGATE OF A SINGLE DOMAIN ANTIBODY, A SAPONIN AND AN EFFECTOR MOLECULE, PHARMACEUTICAL COMPOSITION COMPRISING THE SAME, THERAPEUTIC USE OF SAID PHARMACEUTICAL COMPOSITION” (SAPREME TECHNOLOGIES B.V., priority 2021, published 2025)
Like-named read-outs stand apart in the source and are kept apart here.

Legend:
[1] = Critical micellar concentration (CMC) of saponins, ANS fluorimetric method; type: physicochemical; conditions: for CMC: QS saponins derived from Quillaja saponaria
Method: The critical micellar concentration (CMC) of saponin SO1861 derived from Saponaria officinalis (SO) and QS saponins derived from Quillaja saponaria (QS) (Table A5) was determined by the method of DeVendittis et al. (A fluorimetric method for the estimation of the critical micelle concentration of surfactants, Analytical Biochemistry, Volume 115, Issue 2, August 1981, Pages 278-286) as follows:
The emission spectrum of 8-Anilinonaphthalene-1-sulfonic acid (ANS) in either purified water (MQ) or PBS (Dulbecco's PBS+/+) was determined at dry weight concentrations of saponins ranging from […] to cover the range below and above the CMC. Above the CMC, the fluorescence yield of ANS increases and the wavelength of maximum emission decreases due to portioning of the fluorescent dye into micelles. Fluorescence yields were recorded on a Fluoroskan Ascent FL (Thermo Scientific) at an excitation wavelength of 355 nm, and an emission wavelength of 460 nm. 6 μg at a concentration of 75.86 μM of ANS were used per sample and measurement.

[2] = tested on: endosomal escape of effector molecule; test: Endosomal escape enhancing activity of saponins (cell-based assays, in vivo models); conditions: in vivo animal tumor models, LDL lowering therapy models, free or cleavably conjugated saponin
[3] = Release kinetic assay of saponin from linker at various pH; type: physicochemical; conditions: pH 4.0, 37° C.
Method: SO1861-SC-Mal (blocked) (saponin covalently coupled to the linker through an acid-labile semicarbazone (sc) bond) was tested for efficient pH sensitive release with a release kinetic assay and compared with release kinetics for SO1861-EMCH (blocked) (saponin covalently coupled to the linker through an acid-labile hydrazone bond). The assay was performed in buffers with pH 7.4, pH 6.0 pH, pH 5.0, pH 4.0 at 37° C. for 24 hours.

[4] = tested on: A2058 cells (EGFR-/HER2+/-/CD71+); test: Cell viability / cell killing (MTS) assay on A2058 cells; type: cell-based, human
Method: (§1) Cells were seeded in a 96 well plate at 5.000-10.000 c/w in 100 μL/well and incubated overnight at 37° C. The next day 10× concentrated treatment-mix samples were prepared in PBS, which contain antibody-conjugated SO1861 (i.e. a ‘binding molecule’ or an ‘endosomal escape enhancing conjugate’ of the invention) and targeted-toxin (i.e. a ‘binding molecule’) both at 10× final concentration. The media was removed from the cell culture plate and replaced by 180 μL culture media, followed by the addition of 20 μL treatment-mix/well. For control, 10× treatment-mix samples were prepared that contained the corresponding concentrations of only antibody-conjugated SO1861, only antibody, only SO1861, only targeted-toxin, or PBS without compound as vehicle control. After treatment the cells were incubated for 72 hr at 37° C. before the cell viability was determined by a MTS-assay, performed according to the manufacturer's instruction (CellTiter 96® AQueous One Solution Cell Proliferation Assay, Promega). Briefly, the MTS solution was diluted 20× in DMEM without phenol red (PAN-Biotech GmbH) supplemented with 10% FBS (PAN-Biotech GmbH). The cells were washed once with 200 μL PBS per well, after which 100 μL diluted MTS solution was added per well. The plate was incubated for approximately 20-30 minutes at 37° C. Subsequently, the optical density at 492 nm was measured on a Thermo Scientific Multiskan FC plate reader (Thermo Scientific). For quantification the background signal of ‘medium only’ wells was subtracted from all other wells, before the ratio of untreated/treated cells was calculated, by dividing the background corrected signal of untreated wells over the background corrected signal of the treated wells.
(§2) After treatment the cells were incubated for 72 hr at 37° C. before the cell viability was determined by a MTS-assay, performed according to the manufacturer's instruction (CellTiter 96@AQueous One Solution Cell Proliferation Assay, Promega). Briefly, the MTS solution was diluted 20× in DMEM without phenol red (PAN-Biotech GmbH) supplemented with 10% FBS. The cells were washed once with 200 μL/PBS well, after which 100 μL diluted MTS solution was added/well. The plate was incubated for approximately 20-30 minutes at 37° C. Subsequently, the OD at 492 nm was measured on a Thermo Scientific Multiskan FC plate reader (Thermo Scientific). For quantification the background signal of ‘medium only’ wells was subtracted from all other wells, before the cell viability percentage of treated/untreated cells was calculated, by dividing the background corrected signal of treated wells over the background corrected signal of the untreated wells (×100).

[5] = tested on: A431 cells (EGFR++/HER2+/-/CD71+); test: Cell viability / cell killing (MTS) assay on A431 cells; type: cell-based, human
Method: as §1, §2

[6] = tested on: MDA-MB-468 cells (HER2-/EGFR++/CD71+); test: Cell killing (MTS) assay on MDA-MB-468 cells; type: cell-based, human
Method: as §2

[7] = tested on: SK-BR-3 cells (HER2++/EGFR+/CD71+); test: Cell killing (MTS) assay on SK-BR-3 cells; type: cell-based, human
Method: as §2

EGFR (human) = EGFR (human) (UniProt P00533); test: cell-based or functional assay

Molecule: CC(=O)O[C@@H]1[C@H](O[C@@H]2O[C@@H](C)[C@H](O)[C@@H](O)[C@H]2O)[C@@H](O[C@@H]2O[C@@H](C)[C@H](O[C@@H]3OC[C@@H](O)[C@H](O[C@@H]4OC[C@](O)(CO)[C@H]4O)[C@H]3O)[C@@H](O[C@@H]3O[C@H](CO)[C@@H](O)[C@H](O)[C@H]3O)[C@H]2O)[C@H](OC(=O)[C@]23CCC(C)(C)C[C@H]2C2=CC[C@@H]4[C@@]5(C)CC[C@H](O[C@@H]6O[C@H](C(=O)O)[C@@H](O)[C@H](O[C@@H]7OC[C@@H](O)[C@H](O)[C@H]7O)[C@H]6O[C@@H]6O[C@H](CO)[C@H](O)[C@H](O)[C@H]6O)[C@@](C)(C=O)[C@@H]5CC[C@@]4(C)[C@]2(C)C[C@H]3O)O[C@@H]1C [QS7, QS-7]
- CMC [1]: 230 ± 25 µM

Molecule: CCC(C)C(CC(O)CC(=O)OC1C(C)OC(OC(=O)C23CCC(C)(C)CC2C2=CCC4C5(C)CCC(OC6OC(C(=O)O)C(O)C(OC7OCC(O)C(O)C7O)C6OC6OC(CO)C(O)C(O)C6O)C(C)(C=O)C5CCC4(C)C2(C)CC3O)C(OC2OC(C)C(OC3OCC(O)C(OC4OCC(O)(CO)C4O)C3O)C(OC3OC(CO)C(O)C(O)C3O)C2O)C1O)OC(=O)CC(O)CC(OC1OC(CO)C(O)C1O)C(C)CC (stereo not shown) [QS18, QS-18]
- CMC [1]: 68 ± 7 µM

Molecule: C[C@@H]1O[C@@H](O[C@H]2[C@H](OC(=O)[C@]34CCC(C)(C)C[C@H]3C3=CC[C@@H]5[C@@]6(C)CC[C@H](O[C@H]7O[C@H](C(=O)O)[C@@H](O)[C@H](O[C@@H]8OC[C@@H](O)[C@H](O)[C@H]8O)[C@H]7O[C@@H]7O[C@H](CO)[C@H](O)[C@H](O)[C@H]7O)[C@@](C)(C=O)[C@@H]6CC[C@@]5(C)[C@]3(C)CC4)O[C@H](C)[C@H](O[C@@H]3O[C@H](C)[C@@H](O)[C@H](O)[C@H]3O)[C@@H]2O)[C@H](O)[C@H](O)[C@H]1O[C@@H]1OC[C@@H](O)[C@H](O[C@@H]2OC[C@@H](O)[C@H](O)[C@H]2O)[C@H]1O [SA1641]
- endosomal escape enhancing activity [2]: activity was confirmed

Molecule: CC(=O)OC1C(C)OC(OC2C(C)OC(OC(=O)[C@]34CCC(C)(C)CC3C3=CCC5[C@@]6(C)CC[C@H](OC7OC(C(=O)O)C(O)C(OC8OCC(O)C(O)C8O)C7OC7OC(CO)C(O)C(O)C7O)[C@@](C)(C=O)C6CC[C@@]5(C)[C@]3(C)C[C@H]4O)C(OC3OC(C)C(OC4OCC(O)C(OC5OCC(O)C(O)C5O)C4O)C(O)C3O)C2O)C(O)C1OC1OCC(O)C(O)C1O (stereo partly shown) [SO1832]
- endosomal escape enhancing activity [2]: activity was confirmed

Molecule: CC(=O)OC1C(C)OC(OC2C(C)OC(OC(=O)[C@]34CCC(C)(C)CC3C3=CCC5[C@@]6(C)CC[C@H](OC7OC(C(=O)O)C(O)C(OC8OCC(O)C(O)C8O)C7OC7OC(CO)C(O)C(O)C7O)[C@@](C)(C=NNC(=O)CCCCCN7C(=O)CC(SCCO)C7=O)C6CC[C@@]5(C)[C@]3(C)C[C@H]4O)C(OC3OC(C)C(OC4OCC(O)C(OC5OC(CO)C(O)C(O)C5O)C4O)C(O)C3O)C2O)C(O)C1OC1OCC(O)C(O)C1O (stereo partly shown) [SO1861-EMCH (blocked)]
- time to 50% release of saponin [3]: 12 h

Molecule: CC(=O)OC1C(C)OC(OC2C(C)OC(OC(=O)[C@]34CCC(C)(C)CC3C3=CCC5[C@@]6(C)CC[C@H](OC7OC(C(=O)O)C(O)C(OC8OCC(O)C(O)C8O)C7OC7OC(CO)C(O)C(O)C7O)[C@@](C)(/C=N/NC(=O)CCCCCN7C(=O)C=CC7=O)C6CC[C@@]5(C)[C@]3(C)C[C@H]4O)C(OC3OC(C)C(OC4OCC(O)C(OC5OC(CO)C(O)C(O)C5O)C4O)C(O)C3O)C2O)C(O)C1OC1OCC(O)C(O)C1O (stereo partly shown) [SO1861-EMCH]
- cell killing ([4]; A2058 (EGFR-), titrated on fixed 5 pM bivalent VHH-EGFR-dianthin): not effective
- cell killing ([4]; A2058 (EGFR-), titrated on fixed 10 pM matuzumab-dianthin): not effective
- IC50 ([4]; A2058 (EGFR-/CD71+), titrated on fixed 10 pM CD71mab-saporin): 1500 nM
- IC50 ([5]; A431 (EGFR++), titrated on fixed 5 pM bivalent VHH-EGFR-dianthin, read-out: cell killing IC50): 1500 nM
- IC50 ([5]; A431 (EGFR++), titrated on fixed 10 pM cetuximab-saporin, read-out: cell killing IC50): 1000 nM
- IC50 ([5]; A431 (EGFR++), titrated on fixed 10 pM matuzumab-dianthin, read-out: cell killing IC50): 1500 nM
- IC50 ([5]; A431 (EGFR++/CD71+), titrated on fixed 10 pM CD71mab-saporin, read-out: cell killing IC50): 2000 nM

Molecule: GE1741
- endosomal escape enhancing activity [2]: activity was confirmed

Molecule: QS-17 [QS17]
- CMC [1]: 70 ± 7 µM

Molecule: QS-21 [QS21]
- CMC [1]: 75 ± 8 µM
- endosomal escape enhancing activity [2]: activity was confirmed

Molecule: SO1700
- endosomal escape enhancing activity [2]: activity was confirmed

Molecule: SO1730
- endosomal escape enhancing activity [2]: activity was confirmed

Molecule: SO1772
- endosomal escape enhancing activity [2]: activity was confirmed

Molecule: SO1861
- CMC value ([1]; native SO1861 in PBS): 185 µM
- IC50 ([4]; A2058 (CD71+), SO1861 titrated on fixed 50 pM VHHCD71-dianthin): 200 nM
- cell killing IC50 ([4]; A2058 (EGFR-), SO1861 titrated on fixed 50 pM VHHEGFR-dianthin): no activity
- IC50 ([4]; A2058 (HER2+/-), SO1861 titrated on fixed 50 pM VHH-HER2-dianthin): 700 nM
- endosomal escape enhancing activity [2]: activity was confirmed
- IC50 ([6]; MDA-MB-468 (EGFR++), SO1861 titrated on fixed 50 pM VHH-EGFR-dianthin): 300 nM
- IC50 ([6]; MDA-MB-468 (EGFR++), titrated on fixed 1 pM or 5 pM bivalentVHH-EGFR-dianthin): 1000 nM
- IC50 ([6]; MDA-MB-468 (HER2-/CD71+), SO1861 titrated on fixed 50 pM VHH-CD71-dianthin): 200 nM
- cell killing IC50 ([6]; MDA-MB-468 (HER2-/CD71+), SO1861 titrated on fixed 50 pM VHH-HER2-dianthin): no enhanced activity compared to SO1861 alone
- IC50 ([7]; SK-BR-3 (EGFR+), SO1861 titrated on fixed 50 pM VHH-EGFR-dianthin): 700 nM
- IC50 ([7]; SK-BR-3 (HER2++/CD71+), SO1861 titrated on fixed 50 pM VHH-CD71-dianthin): 200 nM
- IC50 ([7]; SK-BR-3 (HER2++/CD71+), SO1861 titrated on fixed 50 pM VHH-HER2-dianthin): 200 nM
- IC50 ([5]; A431 (CD71+), SO1861 titrated on fixed 50 pM VHHCD71-dianthin, read-out: cell killing IC50): 200 nM
- IC50 ([5]; A431 (EGFR++), SO1861 titrated on fixed 50 pM VHHEGFR-dianthin, read-out: cell killing IC50): 400 nM
- cell killing IC50 ([5]; A431 (HER2+/-), SO1861 titrated on fixed 50 pM VHH-HER2-dianthin): no activity
- IC50 ([5]; A431, SO1861 alone, read-out: SO1861 tolerated concentration IC50): 1000 nM

Molecule: SO1904
- endosomal escape enhancing activity [2]: activity was confirmed

Molecule: cetuximab-saporin (antibody)
- cell killing on MDA-MB-468 (EGFR++), alone (EGFR (human)): 300 pM
